# From patent publication US6087336A, “Peptide derivatives useful in treating autoimmune diseases” (Zeneca Limited, priority 1996, dated 2000)
# What was measured:
# HLA-DR2 = assay: Variant to Test A: peptide selectivity binding assay, HLA-DR2; parameters: species or system Human
# Experimental: (§1) As a variant to test A, the ability of a peptide of the invention to bind to one or more HLA-DR molecules was assessed as follows:
# (§2) (i) Purification of HLA-DR Types from Cell Lines
# (§3) The method used was a modification of that described by Gorga et al, 1987, J.Biol.Chem. 262, 16087-16094. Human HLA-DR antigens were purified from various cell lines by immunoaffinity chromatography. […] Protein content was determined by a Biorad protein assay and purity by SDS-PAGE electrophoresis. […]
# (§4) 200 nM biotin-FHA307-320 in phosphate buffered saline (PBS) was incubated with either purified HLA-DR1, DR2, DR4Dw4, DR4Dw13 or DR4Dw14, (2-20μg/ml) in V-well microtitre plates (Nunc) with or without inhibitor peptides in assay buffer (PBS, 0.01% NP40 (Sigma.)) For DR3 inhibition, 400 nM Biotin-Ahx-(D)Ala-Ala-Ala-Che-lle-Ala-Ala-Ala-Thr-Leu-Lys-Ala-Ala-(D)Ala-OH was incubated with purified DR3 (20 μg/ml.), and incubated as above. After 48 hours, the incubates were treated, and absorbance readings taken as described in Test A. The inhibitory activity of peptides, expressed as IC50 values, was calculated using Microcal Origin software on a PC.
# HLA-DR4Dw14 = assay: Variant to Test A: peptide selectivity binding assay, HLA-DR4Dw14; parameters: species or system Human
# Experimental: as §1, §2, §3, §4
# HLA-DR3 = assay: Variant to Test A: peptide selectivity binding assay, HLA-DR3; parameters: species or system Human; settings: did not bind significantly
# Experimental: as §1, §2, §3, §4
# HLA-DR4Dw4 = target: T1, HLA-DR4Dw4 (Homo sapiens, UniProt P01903+P01911, A100K/A169T/F76Y/I96L/K127E/L162R/M171V/N62H/P40V/Q125Y/R42H/S133A/S149N/S66Y/V115G/V209L/W38E); assay: Variant to Test A: peptide selectivity binding assay, HLA-DR4Dw4
# T1 construct: a cDNA encoding the β chain is cloned into the transfer vector pAcUW1; made in house; host or cells: Sf21 insect cells, double-recombinant baculovirus
# Experimental: as §1, §2, §3, §4
# HLA-DR1 = target: T2, HLA-DR1 (Homo sapiens, UniProt P01903+P01911, A100R/D57E/F55L/F60I/F76Y/I96L/L162R/M171V/P40L/Q125E/R42F/V115G/Y59C); assay: Variant to Test A: peptide selectivity binding assay, HLA-DR1
# T2 construct: Human HLA-DR antigens were purified from various cell lines; endogenous in cells; host or cells: Hom 2 cell line
# Experimental: as §1, §2, §3, §4
substance,measurement,setting,value
Phv-Ala-Arg-Ala-IIb-Ala-Arg-Ala-Papa-NH2 [Example 23],binding to HLA-DR2,HLA-DR2,bind significantly
same,binding to HLA-DR4Dw14,HLA-DR4Dw14,bind significantly
same,IC50,HLA-DR3,> 100 µM
same,binding to HLA-DR4Dw4,HLA-DR4Dw4,bind significantly
same,binding to HLA-DR1,HLA-DR1,bind significantly
